From publication PMC3466217, “A Novel Magnetic Nanoparticle Drug Carrier for Enhanced Cancer Chemotherapy” (PLoS ONE, 2012)
In brackets after ≈: the same amount, converted by molar mass.

Legend:
[1] = DOX biodistribution in H22 tumor-bearing mice; assay type: in vivo, BALB/c mice; details: 5 mg DOX/kg, tail vein, 0.5 hr after treatment, no EMF
Method: The blood, main organs (heart, lung, liver, spleen, kidney), and the tumor of each mouse were harvested for quantitative analysis of the DOX biodistribution. The blood was centrifuged at 5,000 rpm for 1 min at 4°C and the supernatant was obtained by adding 180 µl methanol and 20 µl of inner standard solution (0.2 mg/ml daunorubicin solution dissolved in methanol) to a 2-ml tube containing 200 µl plasma. For the organ (heart, lung, liver, spleen, kidney) and tumor samples, the frozen tissues were weighed and homogenized at 4°C in 0.9% NaCl to a total volume of 10 ml, and centrifuged at 5,000 rpm for 1 min at 4°C to retrieve the supernatant.
A total volume of 200 µl of the plasma, or the supernatant of homogenized tissue, or the tumor samples was then mixed with 180 µl methanols and 20 µl inner standard solutions, followed by 0.4 g sodium sulfate. The mixture was homogenized by vortexing for 5 min and then incubated at 4°C for 1 hr. After the 1-hr incubation, the mixture was centrifuged at 12,000 rpm for 15 min. […] Finally, the percent-injected dose per gram tissue of the tissue and tumor samples was calculated.

H22 cells = experiment: Cytotoxicity in H22 cell culture (MTT assay); assay type: cell-based, mouse; details: 24 hrs, concentration as DOX
Method: A volume of 180 µl of H22 cells were seeded in 96-well plates (4,000 cells/well).
Control cells were cultured in medium only. Thiazolyl blue tetrazolium bromide (25 µl of 5 mg/ml) (MTT, AMRESCO Inc, Solon, OH) was added to each well and incubated for 4 hrs. The culture medium was removed from the wells and replaced with 150 µl dimethylsulfoxide (DMSO, BioTek, Winooski, VT). After shaking gently for 15 min at 25°C, the DMSO solution was transferred to centrifugation tubes and centrifuged at 2,000 rpm for 5 min. The absorbance was then measured at 570 nm with an ELx-800 Universal Microplate Reader (BioTek, Winooski, VT). […] The half-maximal inhibitory concentration (IC50; drug concentration corresponding to 50% growth inhibition) was calculated using SigmaPlot 9.0 software (Systat Software Inc., San Jose, CA) and the 4-parameter logistic function standard curve analysis for dose response.

H22 hepatoma cell tumor = experiment: Chemotherapy experiments in H22 tumor-bearing mice (tumor volume, life span, histology); details: no EMF
Method: The mouse hepatoma H22 cell line was grown in RPMI-1640 medium supplemented with 10% FBS, 100 units/ml of penicillin and 100 µg/ml of streptomycin at 37°C and 5% CO2. BALB/c mice (4- to 8-week-old males, body weight 26±5 g) were housed (one mouse per cage) under specific pathogen-free conditions, maintained on a 12-hour light-dark cycle with controlled temperature (20–24°C), and were given sterile food. The tumor-bearing mouse model was generated by subcutaneous injection of 4×10^5 H22 cells with 50 µl phosphate-buffered saline (PBS) into the shaved right flank. The treatment protocol required the mice to be anesthetized and these were anesthetized with ketamine (80 mg/kg) and xylazine (3 mg/kg), and acepromazine (2 mg/kg) via intraperitoneal injection (IP). If an additional dose was needed, ketamine alone was used.
The doses were normalized to 5 mg DOX per kg body weight when the tumor volume reached 50 to 100 mm^3 (∼10 days after tumor cell inoculation). The volume for 150 µl was injected via the tail vein and the treatment was carried out three times without interval in three weeks.
Chemotherapy experiments: H22 tumor-bearing mice (4 groups; for each group, n = 18) were used and the treatment was performed as described above. The antitumor effect was assessed by the following steps: 1) six mice were sacrificed for each group on the 24th day following treatment. The tumors were harvested and fixed in 10% formalin, embedded in paraffin and sectioned (5 µm coupes) for hematoxylin–eosin (HE) staining for microscopic examination purposes; 2) tumor sizes (4 groups; for each group, n = 12) were measured by a caliper before therapy and every three days after treatment using the following equation: tumor volume (V, mm^3) = (tumor length×tumor width)^2/2. The life span of each animal was also recorded. The relative tumor volume was calculated from V = V/V0, where V0 is the tumor volume at the beginning of treatment. The endpoints of the antitumor effect were evaluated by the degree of tumor growth inhibition and life span after treatment.

For `COc1cccc2c1C(=O)c1c(O)c3c(c(O)c1C2=O)C[C@@](O)(C(=O)CO)C[C@@H]3O[C@H]1C[C@H](N)[C@H](O)[C@H](C)O1` [DOX, doxorubicin], the “DOX concentrations in the other organs (heart, lung and kidney)” value [1] was “Very low concentrations”, the “percent injected dose per gram tissue in blood” value [1] was 1.07% and the “percent injected dose per gram tissue in livers” value [1] was 0.402%. For the same molecule, the “percent injected dose per gram tissue in spleens” value [1] was 0.634%, the “percent injected dose per gram tissue in tumors” value [1] was 0.741% and the “IC50 (cell inhibition rate)” value (H22 cells) was 0.530 ± 0.010 µg/mL (≈ 0.975 µM). For the same molecule, the “life span of tumor-bearing mice” value (H22 hepatoma cell tumor; 5 mg DOX/kg iv three times) was 31.3 ± 3.31 days, the “tumor histology (HE staining)” value (H22 hepatoma cell tumor; 24th day following treatment) was “A few necrotic cells were observed” and the “relative tumor volume (V/V0)” value (H22 hepatoma cell tumor; 21 days after start of treatment, 5 mg DOX/kg iv three times) was 7.08±1.68. For the same molecule, the “survival rate of tumor-bearing mice” value (H22 hepatoma cell tumor; following treatment for 33 days) was 33.3%.
